According to ChEMBL document CHEMBL5543097, “Synthesis and structure-activity relationships of novel 14-membered 2-fluoro ketolides with structural modification at the C11 position” (Eur J Med Chem, 2024):
Values after ≈ are worked out from the molar mass of the structure shown. Active and inactive are the calls of the source. The rule behind the calls is not given here.

How the values were obtained:
Streptococcus agalactiae [1] = test: Antibacterial activity against erythromycin-resistant Streptococcus agalactiae 19-8 assessed as inhibition of visible bacterial growth incubated for 18 hrs by broth microdilution method; format: functional
Haemophilus influenzae [2] = test: Antibacterial activity against Haemophilus influenzae HIN 19-18 assessed as inhibition of bacterial growth incubated for 20 to 24 hrs by CLSI based broth microdilution method; format: functional; details: HIN 19-18, time 20-24 hrs
Moraxella catarrhalis [3] = test: Antibacterial activity against Moraxella catarrhalis BCA 19-5 assessed as inhibition of bacterial growth incubated for 24 hrs by CLSI based broth microdilution method; format: functional; details: Moraxella catarrhalis, BCA 19-5, 24 h, read-out: MIC
[4] = test system: Staphylococcus epidermidis; test: Antibacterial activity against erythromycin-resistant Staphylococcus epidermidis 19-8 assessed as inhibition of visible bacterial growth incubated for 18 hrs by broth microdilution method; format: functional
[5] = test system: Staphylococcus epidermidis; test: Antibacterial activity against erythromycin-resistant Staphylococcus epidermidis 19-6 assessed as inhibition of visible bacterial growth incubated for 18 hrs by broth microdilution method; format: functional
[6] = Cytotoxicity against mouse AML12 cells assessed as reduction in cell viability incubated for 48 hrs by MTT assay; format: toxicity, cell-based
[7] = test system: Staphylococcus epidermidis; test: Antibacterial activity against erythromycin-resistant Staphylococcus epidermidis 19-9 assessed as inhibition of visible bacterial growth incubated for 18 hrs by broth microdilution method; format: functional
[8] = test system: Staphylococcus epidermidis; test: Antibacterial activity against erythromycin-resistant Staphylococcus epidermidis 19-11 assessed as inhibition of visible bacterial growth incubated for 18 hrs by broth microdilution method; format: functional
[9] = test system: Staphylococcus epidermidis; test: Antibacterial activity against erythromycin-resistant Staphylococcus epidermidis 19-5 assessed as inhibition of visible bacterial growth incubated for 18 hrs by broth microdilution method; format: functional
Haemophilus influenzae [10] = test: Antibacterial activity against Haemophilus influenzae HIN 19-15 assessed as inhibition of bacterial growth incubated for 20 to 24 hrs by CLSI based broth microdilution method; format: functional; details: time 20-24 hrs
Streptococcus pneumoniae [11] = test: Antibacterial activity against erythromycin-resistant Streptococcus pneumoniae SPN19-13 assessed as inhibition of visible bacterial growth incubated for 18 hrs by broth microdilution method; format: functional
[12] = test system: Staphylococcus epidermidis; test: Antibacterial activity against erythromycin-resistant Staphylococcus epidermidis 19-4 assessed as inhibition of visible bacterial growth incubated for 18 hrs by broth microdilution method; format: functional
Escherichia coli = test: Antibacterial activity against Escherichia coli ATCC 35218 assessed as inhibition of visible bacterial growth; format: functional, organism-based
Moraxella catarrhalis [13] = test: Antibacterial activity against Moraxella catarrhalis BCA 19-31 assessed as inhibition of bacterial growth incubated for 24 hrs by CLSI based broth microdilution method; format: functional; details: BCA 19-31, 24 h
Streptococcus agalactiae [14] = test: Antibacterial activity against erythromycin-resistant Streptococcus agalactiae 19-9 assessed as inhibition of visible bacterial growth incubated for 18 hrs by broth microdilution method; format: functional
Streptococcus pneumoniae [15] = test: Antibacterial activity against erythromycin-resistant Streptococcus pneumoniae SPN19-14 assessed as inhibition of visible bacterial growth incubated for 18 hrs by broth microdilution method; format: functional
Streptococcus pyogenes = test: Antibacterial activity against erythromycin-resistant Streptococcus pyogenes ATCC 19615 assessed as inhibition of visible bacterial growth incubated for 18 hrs by broth microdilution method; format: functional
Moraxella catarrhalis [16] = test: Antibacterial activity against Moraxella catarrhalis BCA 19-6 assessed as inhibition of bacterial growth incubated for 24 hrs by CLSI based broth microdilution method; format: functional; details: Moraxella catarrhalis, BCA 19-6, 24 h, read-out: MIC
Streptococcus pneumoniae [17] = test: Antibacterial activity against erythromycin-resistant Streptococcus pneumoniae SPN19-8 assessed as inhibition of visible bacterial growth incubated for 18 hrs by broth microdilution method; format: functional
[18] = test system: Staphylococcus epidermidis; test: Potency index, ratio of telithromycin MIC to test compound MIC for antibacterial activity against erythromycin-resistant Staphylococcus epidermidis 19-8 assessed as inhibition of visible bacterial growth incubated for 18 hrs by broth microdilution method; format: functional
[19] = test system: Staphylococcus epidermidis; test: Potency index, ratio of telithromycin MIC to test compound MIC for antibacterial activity against erythromycin-resistant Staphylococcus epidermidis 19-11 assessed as inhibition of visible bacterial growth incubated for 18 hrs by broth microdilution method; format: functional
[20] = test system: Staphylococcus epidermidis; test: Potency index, ratio of telithromycin MIC to test compound MIC for antibacterial activity against erythromycin-resistant Staphylococcus epidermidis 19-6 assessed as inhibition of visible bacterial growth incubated for 18 hrs by broth microdilution method; format: functional
Streptococcus pneumoniae [21] = test: Potency index, ratio of telithromycin MIC to test compound MIC for antibacterial activity against Streptococcus pneumoniae SPN19-14 assessed as inhibition of visible bacterial growth incubated for 18 hrs by broth microdilution method; format: functional
Streptococcus pneumoniae [22] = test: Potency index, ratio of telithromycin MIC to test compound MIC for antibacterial activity against Streptococcus pneumoniae SPN19-13 assessed as inhibition of visible bacterial growth incubated for 18 hrs by broth microdilution method; format: functional
[23] = test system: Staphylococcus epidermidis; test: Potency index, ratio of telithromycin MIC to test compound MIC for antibacterial activity against erythromycin-resistant Staphylococcus epidermidis 19-4 assessed as inhibition of visible bacterial growth incubated for 18 hrs by broth microdilution method; format: functional
Enterococcus faecium = test: Antibacterial activity against vancomycin-resistant Enterococcus faecium assessed as inhibition of visible bacterial growth; format: functional
[24] = test system: Staphylococcus epidermidis; test: Potency index, ratio of telithromycin MIC to test compound MIC for antibacterial activity against erythromycin-resistant Staphylococcus epidermidis 19-9 assessed as inhibition of visible bacterial growth incubated for 18 hrs by broth microdilution method; format: functional
Streptococcus pneumoniae [25] = test: Potency index, ratio of telithromycin MIC to test compound MIC for antibacterial activity against Streptococcus pneumoniae SPN19-8 assessed as inhibition of visible bacterial growth incubated for 18 hrs by broth microdilution method; format: functional
[26] = test system: Staphylococcus epidermidis; test: Potency index, ratio of telithromycin MIC to test compound MIC for antibacterial activity against erythromycin-resistant Staphylococcus epidermidis 19-5 assessed as inhibition of visible bacterial growth incubated for 18 hrs by broth microdilution method; format: functional

## CC[C@H]1OC(=O)[C@@](C)(F)C(=O)[C@H](C)[C@@H](O[C@@H]2O[C@H](C)C[C@H](N(C)C)[C@H]2O)[C@](C)(OC)C[C@@H](C)C(=O)[C@H](C)[C@H]2N(CCCOC(=O)Nc3ccccc3[N+](=O)[O-])C(=O)O[C@]12C
Streptococcus agalactiae [1]
  MIC: < 0.03 µg/mL
Haemophilus influenzae [2]
  MIC: 8 µg/mL (≈ 9.38 µM)
Moraxella catarrhalis [3]
  MIC: 0.5 µg/mL (≈ 0.586 µM)
[4]
  MIC: 0.125 µg/mL (≈ 0.147 µM)
[5]
  MIC: 0.125 µg/mL (≈ 0.147 µM)
[6]
  CC50 at 48 h: 27.4 µM
[7]
  MIC: 0.25 µg/mL (≈ 0.293 µM)
[8]
  MIC: 0.125 µg/mL (≈ 0.147 µM)
[9]
  MIC: 0.125 µg/mL (≈ 0.147 µM)
Haemophilus influenzae [10]
  MIC: 8 µg/mL (≈ 9.38 µM)
Streptococcus pneumoniae [11]
  MIC: 0.25 µg/mL (≈ 0.293 µM)
[12]
  MIC: 0.125 µg/mL (≈ 0.147 µM)
Escherichia coli
  Activity: Active
Moraxella catarrhalis [13]
  MIC: 0.125 µg/mL (≈ 0.147 µM)
Streptococcus agalactiae [14]
  MIC: 4 µg/mL (≈ 4.69 µM)
Streptococcus pneumoniae [15]
  MIC: 0.25 µg/mL (≈ 0.293 µM)
Streptococcus pyogenes
  MIC: < 0.03 µg/mL
Moraxella catarrhalis [16]
  MIC: 0.5 µg/mL (≈ 0.586 µM)
Streptococcus pneumoniae [17]
  MIC: 1 µg/mL (≈ 1.17 µM)

## CC[C@H]1OC(=O)[C@@](C)(F)C(=O)[C@H](C)[C@@H](O[C@@H]2O[C@H](C)C[C@H](N(C)C)[C@H]2O)[C@](C)(OC)C[C@@H](C)C(=O)[C@H](C)[C@H]2N(CCCOC(=O)Nc3cccc4ccccc34)C(=O)O[C@]12C
Streptococcus agalactiae [1]
  MIC: < 0.03 µg/mL
[18]
  Ratio: 4
Haemophilus influenzae [2]
  MIC: 4 µg/mL (≈ 4.66 µM)
[19]
  Ratio: 4
Moraxella catarrhalis [3]
  MIC: < 0.03 µg/mL
[20]
  Ratio: 4
[4]
  MIC: < 0.03 µg/mL
Streptococcus pneumoniae [21]
  Ratio: <4
Streptococcus pneumoniae [22]
  Ratio: <4
[5]
  MIC: < 0.03 µg/mL
[6]
  CC50 at 48 h: 29.4 µM
[7]
  MIC: 0.125 µg/mL (≈ 0.146 µM)
[23]
  Ratio: 4
[8]
  MIC: < 0.03 µg/mL
Enterococcus faecium
  MIC: 16 µg/mL (≈ 18.6 µM)
[9]
  MIC: < 0.03 µg/mL
[24]
  Ratio: 4
Streptococcus pneumoniae [25]
  Ratio: <4
Haemophilus influenzae [10]
  MIC: 4 µg/mL (≈ 4.66 µM)
Streptococcus pneumoniae [11]
  MIC: < 0.03 µg/mL
[12]
  MIC: < 0.03 µg/mL
Escherichia coli
  Activity: Active
Moraxella catarrhalis [13]
  MIC: < 0.03 µg/mL
Streptococcus agalactiae [14]
  MIC: < 0.03 µg/mL
[26]
  Ratio: 4
Streptococcus pneumoniae [15]
  MIC: < 0.03 µg/mL
Streptococcus pyogenes
  MIC: < 0.03 µg/mL
Moraxella catarrhalis [16]
  MIC: < 0.03 µg/mL
Streptococcus pneumoniae [17]
  MIC: < 0.03 µg/mL

## CC[C@H]1OC(=O)[C@@](C)(F)C(=O)[C@H](C)[C@@H](O[C@@H]2O[C@H](C)C[C@H](N(C)C)[C@H]2O)[C@](C)(OC)C[C@@H](C)C(=O)[C@H](C)[C@H]2N(CCCOC(=O)Nc3cccc(F)c3)C(=O)O[C@]12C
Streptococcus agalactiae [1]
  MIC: < 0.03 µg/mL
[18]
  Ratio: 4
Haemophilus influenzae [2]
  MIC: 4 µg/mL (≈ 4.84 µM)
[19]
  Ratio: 4
Moraxella catarrhalis [3]
  MIC: < 0.03 µg/mL
[20]
  Ratio: 4
[4]
  MIC: < 0.03 µg/mL
Streptococcus pneumoniae [21]
  Ratio: <4
Streptococcus pneumoniae [22]
  Ratio: <4
[5]
  MIC: < 0.03 µg/mL
[6]
  CC50 at 48 h: 33.7 µM
[7]
  MIC: < 0.03 µg/mL
[23]
  Ratio: 4
[8]
  MIC: < 0.03 µg/mL
[9]
  MIC: < 0.03 µg/mL
[24]
  Ratio: 4
Streptococcus pneumoniae [25]
  Ratio: <4
Haemophilus influenzae [10]
  MIC: 8 µg/mL (≈ 9.69 µM)
Streptococcus pneumoniae [11]
  MIC: < 0.03 µg/mL
[12]
  MIC: < 0.03 µg/mL
Escherichia coli
  Activity: Active
Moraxella catarrhalis [13]
  MIC: < 3 µg/mL
Streptococcus agalactiae [14]
  MIC: 0.06 µg/mL (≈ 0.0726 µM)
[26]
  Ratio: 4
Streptococcus pneumoniae [15]
  MIC: < 0.03 µg/mL
Streptococcus pyogenes
  MIC: < 0.03 µg/mL
Moraxella catarrhalis [16]
  MIC: < 0.03 µg/mL
Streptococcus pneumoniae [17]
  MIC: < 0.03 µg/mL

## CC[C@H]1OC(=O)[C@@](C)(F)C(=O)[C@H](C)[C@@H](O[C@@H]2O[C@H](C)C[C@H](N(C)C)[C@H]2O)[C@](C)(OC)C[C@@H](C)C(=O)[C@H](C)[C@H]2N(CCCOC(=O)Nc3cccnc3)C(=O)O[C@]12C
Streptococcus agalactiae [1]
  MIC: < 0.03 µg/mL
Haemophilus influenzae [2]
  MIC: 4 µg/mL (≈ 4.94 µM)
Moraxella catarrhalis [3]
  MIC: 0.06 µg/mL (≈ 0.0742 µM)
[4]
  MIC: 0.125 µg/mL (≈ 0.155 µM)
[5]
  MIC: 125 µg/mL (≈ 155 µM)
[6]
  CC50 at 48 h: > 100 µM
[7]
  MIC: 0.5 µg/mL (≈ 0.618 µM)
[8]
  MIC: 0.125 µg/mL (≈ 0.155 µM)
[9]
  MIC: 0.125 µg/mL (≈ 0.155 µM)
Haemophilus influenzae [10]
  MIC: 4 µg/mL (≈ 4.94 µM)
Streptococcus pneumoniae [11]
  MIC: 0.125 µg/mL (≈ 0.155 µM)
[12]
  MIC: 0.25 µg/mL (≈ 0.309 µM)
Escherichia coli
  Activity: Active
Moraxella catarrhalis [13]
  MIC: 0.06 µg/mL (≈ 0.0742 µM)
Streptococcus agalactiae [14]
  MIC: 0.25 µg/mL (≈ 0.309 µM)
Streptococcus pneumoniae [15]
  MIC: 0.125 µg/mL (≈ 0.155 µM)
Streptococcus pyogenes
  MIC: < 0.03 µg/mL
Moraxella catarrhalis [16]
  MIC: 0.06 µg/mL (≈ 0.0742 µM)
Streptococcus pneumoniae [17]
  MIC: 0.125 µg/mL (≈ 0.155 µM)
